Experimental data taken from ChEMBL document CHEMBL5244230, “Artemisinin-derived hybrids and their anticancer activity” (Eur J Med Chem, 2020).

How the values were obtained:
A549 = assay: Antiproliferative activity against human A549 cells; assay type: functional, cell-based
MDA-MB-231 [1] = assay: Antiproliferative activity against human MDA-MB-231 cells; assay type: functional, cell-based; details: Homo sapiens, MDA-MB-231
[2] = Antiproliferative activity against human U-87 MG cells; assay type: functional, cell-based, U-87MG ATCC
NCI-H460 = assay: Antiproliferative activity against human NCI-H460 cells; assay type: functional, cell-based
HT-29 = assay: Antiproliferative activity against human HT-29 cells assessed as reduction in cell viability; assay type: functional, cell-based
MDA-MB-231 [3] = assay: Antiproliferative activity against human MDA-MB-231 cells assessed as reduction in cell viability; assay type: functional, cell-based
HCT-116 [4] = assay: Antiproliferative activity against human HCT-116 cells; assay type: functional, cell-based
PC-3 = assay: Antiproliferative activity against human PC-3 cells; assay type: functional, cell-based
HCT-116 [5] = assay: Antiproliferative activity against human HCT-116 cells assessed as reduction in cell viability; assay type: functional, cell-based; details: Homo sapiens, HCT-116
MCF7 = assay: Anticancer activity against human MCF7 cells; assay type: functional, cell-based

C[C@@H]1CC[C@H]2[C@@H](C)C(OCCOc3cccc(/C=C/S(=O)(=O)Nc4ccc(Cl)cc4)c3)O[C@@H]3O[C@@]4(C)CC[C@@H]1[C@]32OO4 (single isomer, unassigned)
IC50 (A549): 0.05 µM
IC50 (MDA-MB-231 [1]): 0.05 µM
IC50 [2]: 0.05 µM
IC50 (NCI-H460): 0.05 µM
IC50 (HT-29): 0.05 µM

C[C@H]1[C@H](OCCNC(=O)c2ccc(COc3ccc(/C=C/S(=O)(=O)Nc4cccc(Cl)c4)cc3)cc2)O[C@@H]2O[C@@]3(C)CC[C@H]4[C@H](C)CC[C@@H]1[C@@]24OO3
IC50 (A549): 0.09 µM
IC50 (MDA-MB-231 [1]): 0.09 µM
IC50 (NCI-H460): 0.09 µM
IC50 (HT-29): 0.09 µM

Cc1cc(=O)oc2cc(OCCCn3cc(CO[C@H]4O[C@@H]5O[C@@]6(C)CC[C@H]7[C@H](C)CC[C@@H]([C@H]4C)[C@@]57OO6)nn3)ccc12
IC50 (MDA-MB-231 [3]): 0.43 µM
IC50 (HT-29): 0.43 µM

CCOC(=O)c1cc2ccc(OCCn3cc(CO[C@H]4O[C@@H]5O[C@@]6(C)CC[C@H]7[C@H](C)CC[C@@H]([C@H]4C)[C@@]57OO6)nn3)cc2oc1=O
IC50 (MDA-MB-231 [3]): 0.43 µM
IC50 (HT-29): 0.43 µM

C[C@H]1[C@H](OCCNC(=O)c2ccc(COc3ccc(/C=C/S(=O)(=O)Nc4ccc(OC(F)(F)F)cc4)cc3)cc2)O[C@@H]2O[C@@]3(C)CC[C@H]4[C@H](C)CC[C@@H]1[C@@]24OO3
IC50 (MDA-MB-231 [1]): 0.09 µM
IC50 [2]: 0.09 µM
IC50 (HT-29): 0.09 µM

C[C@H]1[C@H](OCCOc2cccc(/C=C/S(=O)(=O)Nc3ccccc3)c2)O[C@@H]2O[C@@]3(C)CC[C@H]4[C@H](C)CC[C@@H]1[C@@]24OO3
IC50 (A549): 0.05 µM
IC50 (MDA-MB-231 [1]): 0.05 µM
IC50 [2]: 0.05 µM
IC50 (NCI-H460): 0.05 µM
IC50 (HT-29): 0.05 µM

CC1=C(CCCCOC(=O)CCC(=O)O[C@@H]2O[C@@H]3O[C@@]4(C)CC[C@H]5[C@H](C)CC[C@@H]([C@H]2C)[C@@]35OO4)C(=O)C(C(C)C)=CC1=O
IC50 (HCT-116 [4]): > 100 µM
IC50 (PC-3): > 100 µM

C[C@H]1[C@H](OCCNC(=O)c2ccc(COc3ccc(/C=C/S(=O)(=O)Nc4ccc(Cl)cc4)cc3)cc2)O[C@@H]2O[C@@]3(C)CC[C@H]4[C@H](C)CC[C@@H]1[C@@]24OO3
IC50 (MDA-MB-231 [1]): 0.09 µM
IC50 [2]: 0.09 µM
IC50 (NCI-H460): 0.09 µM
IC50 (HT-29): 0.09 µM

Cc1c(C)c2ccc(OCCn3cc(CO[C@H]4O[C@@H]5O[C@@]6(C)CC[C@H]7[C@H](C)CC[C@@H]([C@H]4C)[C@@]57OO6)nn3)cc2oc1=O
IC50 (MDA-MB-231 [3]): 0.43 µM
IC50 (HCT-116 [5]): 0.43 µM
IC50 (HT-29): 0.43 µM

COc1cc([C@@H]2c3cc4c(cc3[C@@H](O[C@@H]3O[C@@H]5CO[C@@H](C)O[C@H]5[C@H](O)[C@H]3O)[C@H]3COC(=O)[C@H]23)OCO4)cc(OC)c1O [ETOPOSIDE]
IC50 (MCF7): 0.83 µM

CC1=C(CCCOC(=O)CCC(=O)O[C@@H]2O[C@@H]3O[C@@]4(C)CC[C@H]5[C@H](C)CC[C@@H]([C@H]2C)[C@@]35OO4)C(=O)C(C(C)C)=CC1=O
IC50 (HCT-116 [4]): > 100 µM
IC50 (PC-3): > 100 µM

CC1=C(CCCCOC(=O)C[C@H]2O[C@@H]3O[C@@]4(C)CC[C@H]5[C@H](C)CC[C@@H]([C@H]2C)[C@@]35OO4)C(=O)C(C(C)C)=CC1=O
IC50 (HCT-116 [4]): > 100 µM
IC50 (PC-3): > 100 µM

CCOC(=O)c1cc2ccc(OCCCn3cc(CO[C@H]4O[C@@H]5O[C@@]6(C)CC[C@H]7[C@H](C)CC[C@@H]([C@H]4C)[C@@]57OO6)nn3)cc2oc1=O
IC50 (MDA-MB-231 [3]): 0.43 µM
IC50 (HT-29): 0.43 µM

Cc1c(Cl)c(=O)oc2cc(OCCn3cc(CO[C@H]4O[C@@H]5O[C@@]6(C)CC[C@H]7[C@H](C)CC[C@@H]([C@H]4C)[C@@]57OO6)nn3)ccc12
IC50 (MDA-MB-231 [3]): 0.43 µM
IC50 (HCT-116 [5]): 0.43 µM
IC50 (HT-29): 0.43 µM

CC1=C(CCCO[C@H]2O[C@@H]3O[C@@]4(C)CC[C@H]5[C@H](C)CC[C@@H]([C@H]2C)[C@@]35OO4)C(=O)C(C(C)C)=CC1=O
IC50 (HCT-116 [4]): > 100 µM
IC50 (PC-3): > 100 µM

CC1=C(CCOC(=O)CCC(=O)O[C@@H]2O[C@@H]3O[C@@]4(C)CC[C@H]5[C@H](C)CC[C@@H]([C@H]2C)[C@@]35OO4)C(=O)C(C(C)C)=CC1=O
IC50 (HCT-116 [4]): 2.4 µM
IC50 (PC-3): 2.4 µM

Cc1cc(=O)oc2cc(OCCn3cc(CO[C@H]4O[C@@H]5O[C@@]6(C)CC[C@H]7[C@H](C)CC[C@@H]([C@H]4C)[C@@]57OO6)nn3)ccc12
IC50 (MDA-MB-231 [3]): 0.43 µM
IC50 (HCT-116 [5]): 0.43 µM
IC50 (HT-29): 0.43 µM

C.C[C@H]1[C@@H](CC(=O)O[C@@H]2C[C@@H](OC(=O)C[C@H]3O[C@@H]4O[C@@]5(C)CC[C@H]6[C@H](C)CC[C@@H]([C@H]3C)[C@@]46OO5)[C@H](C)O[C@H]2O[C@H](C)CCCCC(=O)O)O[C@@H]2O[C@@]3(C)CC[C@H]4[C@H](C)CC[C@@H]1[C@@]24OO3
IC50 (MCF7): 5.5 µM
IC50 (MDA-MB-231 [3]): 5.5 µM
IC50 (A549): 5.5 µM

CC1=CC(=O)C(C(C)C)=CC1=O [THYMOQUINONE]
IC50 (HCT-116 [4]): 50.1 µM
IC50 (PC-3): 50.1 µM

CC1=C(CCCOC(=O)C[C@H]2O[C@@H]3O[C@@]4(C)CC[C@H]5[C@H](C)CC[C@@H]([C@H]2C)[C@@]35OO4)C(=O)C(C(C)C)=CC1=O
IC50 (HCT-116 [4]): > 100 µM
IC50 (PC-3): > 100 µM

Cc1c(C)c2ccc(OCCCn3cc(CO[C@H]4O[C@@H]5O[C@@]6(C)CC[C@H]7[C@H](C)CC[C@@H]([C@H]4C)[C@@]57OO6)nn3)cc2oc1=O
IC50 (MDA-MB-231 [3]): 0.43 µM
IC50 (HT-29): 0.43 µM

C[C@H]1[C@H](OCCNC(=O)c2ccc(COc3ccc(/C=C/S(=O)(=O)Nc4ccccc4Cl)cc3)cc2)O[C@@H]2O[C@@]3(C)CC[C@H]4[C@H](C)CC[C@@H]1[C@@]24OO3
IC50 (A549): 0.09 µM
IC50 (MDA-MB-231 [1]): 0.09 µM
IC50 (HT-29): 0.09 µM

CC1=C(CCCCO[C@H]2O[C@@H]3O[C@@]4(C)CC[C@H]5[C@H](C)CC[C@@H]([C@H]2C)[C@@]35OO4)C(=O)C(C(C)C)=CC1=O
IC50 (HCT-116 [4]): > 100 µM
IC50 (PC-3): > 100 µM

C[C@H]1[C@@H](OCc2cn(CCCOc3ccc4c(C(F)(F)F)cc(=O)oc4c3)nn2)O[C@@H]2O[C@@]3(C)CC[C@H]4[C@H](C)CC[C@@H]1[C@@]24OO3
IC50 (MDA-MB-231 [3]): 0.43 µM
IC50 (HCT-116 [5]): 0.43 µM
IC50 (HT-29): 0.43 µM

C[C@H]1[C@@H](OCc2cn(CCOc3ccc4c(C(F)(F)F)cc(=O)oc4c3)nn2)O[C@@H]2O[C@@]3(C)CC[C@H]4[C@H](C)CC[C@@H]1[C@@]24OO3
IC50 (MDA-MB-231 [3]): 0.43 µM
IC50 (HCT-116 [5]): 0.43 µM
IC50 (HT-29): 0.43 µM

Cc1c(Cl)c(=O)oc2cc(OCCCn3cc(CO[C@H]4O[C@@H]5O[C@@]6(C)CC[C@H]7[C@H](C)CC[C@@H]([C@H]4C)[C@@]57OO6)nn3)ccc12
IC50 (MDA-MB-231 [3]): 0.43 µM
IC50 (HT-29): 0.43 µM

C[C@H]1[C@@H](OC(=O)CCC(=O)O)O[C@@H]2O[C@@]3(C)CC[C@H]4[C@H](C)CC[C@@H]1[C@@]24OO3
IC50 (HCT-116 [4]): 5.3 µM
IC50 (PC-3): 5.3 µM

C[C@H]1[C@@H](CC(=O)O[C@@H]2C[C@@H](OC(=O)C[C@H]3O[C@@H]4O[C@@]5(C)CC[C@H]6[C@H](C)CC[C@@H]([C@H]3C)[C@@]46OO5)[C@H](C)O[C@H]2O[C@H](C)CCCCC2OCOO2)O[C@@H]2O[C@@]3(C)CC[C@H]4[C@H](C)CC[C@@H]1[C@@]24OO3 (some centres undefined)
IC50 (MCF7): 5.5 µM
IC50 (MDA-MB-231 [3]): 5.5 µM
IC50 (A549): 5.5 µM
